In test [1] the target is Serine/threonine-protein kinase Nek4 (Homo sapiens) (UniProt P51957). Description: Inhibition of human NEK4 at 1.82 nM by HotSpot assay relative to control.
The target of test [2] is Protein-tyrosine kinase 6 (Homo sapiens) (UniProt Q13882). Kind of test: Inhibition of human BRK at 1.82 nM by HotSpot assay relative to control.
Test [3] addresses Tyrosine-protein kinase Fgr (Homo sapiens) (UniProt P09769). Description: Inhibition of human FGR at 1.82 nM by HotSpot assay relative to control.
For test [4], the target named is Death-associated protein kinase 2 (Homo sapiens) (UniProt Q9UIK4). Kind of test: Inhibition of human DAPK2 at 1.82 nM by HotSpot assay relative to control.
Test [5] deals with T1, cAMP-dependent protein kinase catalytic subunit PRKX (Homo sapiens) (UniProt P51817).
T1 sequence (whole entry): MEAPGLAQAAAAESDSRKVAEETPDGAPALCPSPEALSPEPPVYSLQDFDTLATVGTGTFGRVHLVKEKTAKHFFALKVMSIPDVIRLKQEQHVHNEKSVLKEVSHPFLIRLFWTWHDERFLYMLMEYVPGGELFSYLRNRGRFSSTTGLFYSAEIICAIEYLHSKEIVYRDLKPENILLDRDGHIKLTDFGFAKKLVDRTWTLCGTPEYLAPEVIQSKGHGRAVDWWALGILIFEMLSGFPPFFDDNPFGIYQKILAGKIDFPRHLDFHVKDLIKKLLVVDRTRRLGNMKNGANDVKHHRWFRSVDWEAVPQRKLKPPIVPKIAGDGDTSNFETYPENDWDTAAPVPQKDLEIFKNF
Kind of test: Inhibition of human PRKX at 1.82 nM by HotSpot assay relative to control.

The target of test [6] is Platelet-derived growth factor receptor beta (Homo sapiens) (UniProt P09619). Description: Inhibition of human PDGFRb at 500 nM by HotSpot assay relative to control.
Test [7] deals with Cyclin-dependent kinase 2/cyclin E1 (Homo sapiens) (UniProt P24864+P24941). Description: Inhibition of human CDK2/cyclin E at 18.6 nM by HotSpot assay relative to control. In kind it is protein-complex assay.
For test [8], the target named is Serine/threonine-protein kinase PLK1 (Homo sapiens) (UniProt P53350). Description: Inhibition of human PLK1 at 18.6 nM by HotSpot assay relative to control.
Test [9] addresses Cyclin-dependent kinase 5/CDK5 activator 1 (Homo sapiens) (UniProt Q00535+Q15078). Kind of test: Inhibition of human CDK5/p25 at 18.6 nM by HotSpot assay relative to control. The format is protein-complex assay.
Test [10] concerns the target BDNF/NT-3 growth factors receptor (Homo sapiens) (UniProt Q16620). Description: Inhibition of human TRKB at 18.6 nM by HotSpot assay relative to control.
The target of test [11] is T2, Serine/threonine-protein kinase D1 (Homo sapiens) (UniProt Q15139).
T2 sequence (whole entry): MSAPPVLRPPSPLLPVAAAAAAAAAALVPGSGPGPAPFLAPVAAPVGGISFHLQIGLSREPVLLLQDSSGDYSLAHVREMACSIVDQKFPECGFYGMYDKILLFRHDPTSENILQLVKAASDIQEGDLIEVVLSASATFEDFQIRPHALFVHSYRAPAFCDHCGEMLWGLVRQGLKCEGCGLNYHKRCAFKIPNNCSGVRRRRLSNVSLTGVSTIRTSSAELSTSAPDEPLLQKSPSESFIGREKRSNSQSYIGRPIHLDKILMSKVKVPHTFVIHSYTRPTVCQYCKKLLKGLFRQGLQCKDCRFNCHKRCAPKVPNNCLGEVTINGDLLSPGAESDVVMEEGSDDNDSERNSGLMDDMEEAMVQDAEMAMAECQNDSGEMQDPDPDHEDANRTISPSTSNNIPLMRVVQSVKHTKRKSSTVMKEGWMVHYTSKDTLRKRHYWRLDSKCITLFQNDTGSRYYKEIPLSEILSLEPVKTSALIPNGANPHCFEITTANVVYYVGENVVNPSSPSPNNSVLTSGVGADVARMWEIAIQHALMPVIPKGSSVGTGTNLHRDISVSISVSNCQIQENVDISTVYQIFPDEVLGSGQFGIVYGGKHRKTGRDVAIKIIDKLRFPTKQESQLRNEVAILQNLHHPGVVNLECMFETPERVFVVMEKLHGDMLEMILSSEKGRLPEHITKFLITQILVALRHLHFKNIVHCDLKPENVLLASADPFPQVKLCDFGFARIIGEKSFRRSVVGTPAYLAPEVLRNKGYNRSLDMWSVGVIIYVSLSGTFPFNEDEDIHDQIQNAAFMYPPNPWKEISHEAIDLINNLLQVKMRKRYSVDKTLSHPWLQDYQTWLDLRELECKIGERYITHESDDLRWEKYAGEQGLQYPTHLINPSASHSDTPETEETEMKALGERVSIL
Kind of test: Inhibition of human PRKD1 at 18.6 nM by HotSpot assay relative to control.

For test [12], the target named is STE20-like serine/threonine-protein kinase (Homo sapiens) (UniProt Q9H2G2). Description: Inhibition of human STK2 at 18.6 nM by HotSpot assay relative to control.
Test [13] deals with Misshapen-like kinase 1 (Homo sapiens) (UniProt Q8N4C8). Kind of test: Inhibition of human MINK1 at 18.6 nM by HotSpot assay relative to control.

Sequence of Cyclin-dependent kinase 5/CDK5 activator 1 (Homo sapiens) (Q00535 whole entry): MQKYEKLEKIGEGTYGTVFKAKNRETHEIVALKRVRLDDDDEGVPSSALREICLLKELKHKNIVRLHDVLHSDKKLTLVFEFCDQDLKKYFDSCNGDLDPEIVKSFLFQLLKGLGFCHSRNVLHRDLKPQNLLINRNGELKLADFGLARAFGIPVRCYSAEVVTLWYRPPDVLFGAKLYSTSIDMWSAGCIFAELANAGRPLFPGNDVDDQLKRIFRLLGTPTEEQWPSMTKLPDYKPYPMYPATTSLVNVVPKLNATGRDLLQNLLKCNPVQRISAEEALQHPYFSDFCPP
Sequence of Cyclin-dependent kinase 5/CDK5 activator 1 (Homo sapiens) (Q15078 99-307 partner limits assumed): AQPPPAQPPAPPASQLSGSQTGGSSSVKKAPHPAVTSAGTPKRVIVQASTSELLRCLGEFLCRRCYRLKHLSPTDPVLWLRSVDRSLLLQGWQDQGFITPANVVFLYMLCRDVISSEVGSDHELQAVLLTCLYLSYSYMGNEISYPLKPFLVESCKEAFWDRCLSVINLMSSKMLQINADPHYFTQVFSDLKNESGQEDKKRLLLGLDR
Sequence of STE20-like serine/threonine-protein kinase (Homo sapiens) (Q9H2G2 whole entry, looked up): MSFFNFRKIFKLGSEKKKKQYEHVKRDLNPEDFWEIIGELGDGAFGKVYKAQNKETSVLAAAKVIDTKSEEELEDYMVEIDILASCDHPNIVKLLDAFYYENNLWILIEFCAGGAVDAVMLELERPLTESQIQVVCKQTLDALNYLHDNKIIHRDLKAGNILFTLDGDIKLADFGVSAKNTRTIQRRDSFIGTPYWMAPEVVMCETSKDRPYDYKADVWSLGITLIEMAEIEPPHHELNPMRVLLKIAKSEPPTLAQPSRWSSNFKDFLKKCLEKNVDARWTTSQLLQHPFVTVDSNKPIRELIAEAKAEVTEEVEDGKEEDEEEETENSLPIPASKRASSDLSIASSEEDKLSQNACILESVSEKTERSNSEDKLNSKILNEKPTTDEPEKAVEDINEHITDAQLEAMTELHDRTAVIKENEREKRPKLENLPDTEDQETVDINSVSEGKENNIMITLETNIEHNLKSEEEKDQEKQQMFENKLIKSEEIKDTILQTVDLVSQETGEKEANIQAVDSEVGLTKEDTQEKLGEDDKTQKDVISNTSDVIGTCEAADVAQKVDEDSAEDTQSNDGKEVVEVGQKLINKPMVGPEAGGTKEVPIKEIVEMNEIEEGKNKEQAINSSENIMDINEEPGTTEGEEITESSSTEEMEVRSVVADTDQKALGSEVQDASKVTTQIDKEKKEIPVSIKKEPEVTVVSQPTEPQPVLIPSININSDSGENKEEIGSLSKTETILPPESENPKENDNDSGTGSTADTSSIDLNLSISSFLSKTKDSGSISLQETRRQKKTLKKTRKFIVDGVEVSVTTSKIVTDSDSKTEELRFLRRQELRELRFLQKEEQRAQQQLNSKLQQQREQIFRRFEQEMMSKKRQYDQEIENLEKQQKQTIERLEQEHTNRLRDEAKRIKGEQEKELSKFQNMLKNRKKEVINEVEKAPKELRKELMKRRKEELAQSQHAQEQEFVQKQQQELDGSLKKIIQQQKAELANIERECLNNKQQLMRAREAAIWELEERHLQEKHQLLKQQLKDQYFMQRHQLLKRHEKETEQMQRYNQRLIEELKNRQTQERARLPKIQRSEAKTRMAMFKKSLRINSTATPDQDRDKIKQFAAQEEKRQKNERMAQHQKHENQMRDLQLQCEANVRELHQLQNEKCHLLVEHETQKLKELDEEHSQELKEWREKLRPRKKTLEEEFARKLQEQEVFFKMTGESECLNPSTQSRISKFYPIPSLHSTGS
Sequence of Serine/threonine-protein kinase Nek4 (Homo sapiens) (P51957 whole entry, looked up): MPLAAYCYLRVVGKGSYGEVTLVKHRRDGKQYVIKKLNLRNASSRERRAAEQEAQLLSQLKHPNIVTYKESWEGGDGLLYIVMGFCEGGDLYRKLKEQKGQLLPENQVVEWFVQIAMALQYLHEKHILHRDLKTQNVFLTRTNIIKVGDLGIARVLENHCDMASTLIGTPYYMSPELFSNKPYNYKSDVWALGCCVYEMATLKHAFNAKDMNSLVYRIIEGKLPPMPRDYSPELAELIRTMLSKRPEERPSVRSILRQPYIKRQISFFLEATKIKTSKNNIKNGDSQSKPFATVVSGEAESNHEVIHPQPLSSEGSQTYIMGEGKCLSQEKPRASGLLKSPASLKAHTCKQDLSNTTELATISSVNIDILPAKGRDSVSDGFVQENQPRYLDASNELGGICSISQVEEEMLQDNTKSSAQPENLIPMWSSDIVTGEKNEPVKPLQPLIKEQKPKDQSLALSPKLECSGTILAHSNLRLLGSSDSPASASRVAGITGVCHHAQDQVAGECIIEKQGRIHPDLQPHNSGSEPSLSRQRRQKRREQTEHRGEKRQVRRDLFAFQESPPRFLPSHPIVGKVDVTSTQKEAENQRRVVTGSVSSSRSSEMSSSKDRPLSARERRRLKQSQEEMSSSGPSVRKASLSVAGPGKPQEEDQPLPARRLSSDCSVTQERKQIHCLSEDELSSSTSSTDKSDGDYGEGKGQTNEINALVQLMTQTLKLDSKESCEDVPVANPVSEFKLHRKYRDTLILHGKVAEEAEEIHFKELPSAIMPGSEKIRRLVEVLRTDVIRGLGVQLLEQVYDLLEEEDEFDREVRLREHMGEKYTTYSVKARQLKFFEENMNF
Sequence of Platelet-derived growth factor receptor beta (Homo sapiens) (P09619 whole entry): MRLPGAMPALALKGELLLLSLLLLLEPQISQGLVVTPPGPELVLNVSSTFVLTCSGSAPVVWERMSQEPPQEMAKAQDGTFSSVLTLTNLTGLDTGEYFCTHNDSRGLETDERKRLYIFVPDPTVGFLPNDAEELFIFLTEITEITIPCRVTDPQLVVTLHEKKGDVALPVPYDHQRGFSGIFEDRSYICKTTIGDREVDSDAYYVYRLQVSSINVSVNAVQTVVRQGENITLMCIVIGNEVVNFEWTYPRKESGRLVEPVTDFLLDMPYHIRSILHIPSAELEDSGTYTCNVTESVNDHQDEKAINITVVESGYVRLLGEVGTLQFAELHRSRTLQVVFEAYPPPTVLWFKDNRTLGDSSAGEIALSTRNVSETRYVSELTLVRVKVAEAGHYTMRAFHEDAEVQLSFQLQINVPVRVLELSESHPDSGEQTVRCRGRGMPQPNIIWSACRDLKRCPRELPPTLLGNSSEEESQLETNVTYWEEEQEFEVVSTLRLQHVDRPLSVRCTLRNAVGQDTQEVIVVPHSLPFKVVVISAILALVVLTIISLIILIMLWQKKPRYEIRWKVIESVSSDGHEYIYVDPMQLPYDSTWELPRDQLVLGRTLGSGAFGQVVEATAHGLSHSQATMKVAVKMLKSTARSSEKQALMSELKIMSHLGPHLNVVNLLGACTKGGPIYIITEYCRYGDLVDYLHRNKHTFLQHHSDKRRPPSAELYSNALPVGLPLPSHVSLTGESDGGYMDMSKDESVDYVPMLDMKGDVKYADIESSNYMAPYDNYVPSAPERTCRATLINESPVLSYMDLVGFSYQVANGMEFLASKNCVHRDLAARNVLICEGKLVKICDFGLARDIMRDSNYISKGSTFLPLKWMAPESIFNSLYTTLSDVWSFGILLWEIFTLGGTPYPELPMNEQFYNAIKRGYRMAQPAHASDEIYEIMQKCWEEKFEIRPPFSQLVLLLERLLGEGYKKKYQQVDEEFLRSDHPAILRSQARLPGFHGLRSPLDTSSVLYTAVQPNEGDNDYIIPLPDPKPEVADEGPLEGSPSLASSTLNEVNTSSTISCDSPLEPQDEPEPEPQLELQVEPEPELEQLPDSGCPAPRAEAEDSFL
Sequence of Death-associated protein kinase 2 (Homo sapiens) (Q9UIK4 whole entry, looked up): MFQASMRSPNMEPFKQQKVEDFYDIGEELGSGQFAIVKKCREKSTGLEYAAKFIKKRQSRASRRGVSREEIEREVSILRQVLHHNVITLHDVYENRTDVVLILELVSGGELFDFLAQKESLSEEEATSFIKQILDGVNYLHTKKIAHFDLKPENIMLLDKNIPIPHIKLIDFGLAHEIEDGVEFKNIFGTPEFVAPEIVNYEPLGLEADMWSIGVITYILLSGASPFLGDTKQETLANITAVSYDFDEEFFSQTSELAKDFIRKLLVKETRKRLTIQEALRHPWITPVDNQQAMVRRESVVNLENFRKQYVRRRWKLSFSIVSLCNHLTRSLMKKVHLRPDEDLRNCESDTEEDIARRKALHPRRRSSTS
Sequence of Serine/threonine-protein kinase PLK1 (Homo sapiens) (P53350 whole entry): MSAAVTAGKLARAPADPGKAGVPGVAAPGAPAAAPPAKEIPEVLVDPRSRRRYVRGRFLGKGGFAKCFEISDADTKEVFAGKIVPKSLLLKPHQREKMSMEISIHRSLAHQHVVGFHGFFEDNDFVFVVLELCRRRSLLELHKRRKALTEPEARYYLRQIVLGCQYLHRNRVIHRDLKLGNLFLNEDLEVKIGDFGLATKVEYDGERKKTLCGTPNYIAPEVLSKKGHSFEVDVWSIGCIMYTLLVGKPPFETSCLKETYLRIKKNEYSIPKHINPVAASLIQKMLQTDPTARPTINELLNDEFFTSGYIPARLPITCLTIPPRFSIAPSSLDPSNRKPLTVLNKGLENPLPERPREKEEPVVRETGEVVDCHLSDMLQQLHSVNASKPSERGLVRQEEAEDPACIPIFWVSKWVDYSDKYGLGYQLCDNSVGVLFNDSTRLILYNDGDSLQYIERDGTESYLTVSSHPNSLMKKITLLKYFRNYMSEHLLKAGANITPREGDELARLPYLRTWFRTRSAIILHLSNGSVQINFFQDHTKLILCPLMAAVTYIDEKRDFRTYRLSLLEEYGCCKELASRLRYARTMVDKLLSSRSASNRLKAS

With `C[C@@]1(C(=O)Nc2ccc(F)nc2)CCCN1c1nc(Nc2cc(C3CC3)n[nH]2)c2cccn2n1`, the inhibition is -3.35% in [1]; 0.2% in test [2]; -3.39% in test [3]; -1.36% in test [4]; 0.19% in test [5].
In the case of `Oc1n[nH]c2nnc(-c3c(-c4ccccc4)nn4ccccc34)cc12`, the inhibition in [6] is -0.46%.
`C[C@]1(O)C[C@@H](c2nc(-c3ccc4ccc(-c5ccccc5)nc4c3)c3c(N)nccn32)C1`: the inhibition was 2.03% in [7]; -7.65% in [8]; 4.12% in [9]; -7.44% in test [10]; -2.06% in test [11]; 9.03% in test [12]. In test [13], the inhibition is -2.76%.

Broadly, the inhibition is the relative decrease from the control value, in per cent.
